This is an account of results in US11447460B2, “Compounds and compositions for treating conditions associated with NLRP activity” (Novartis AG, priority 2016, dated 2022).

As a reminder, the IC50 is the concentration at which inhibition is half-maximal.

Like-named read-outs stand apart in the source and are kept apart here. A value given as a limit tells only on which side of the number the result lay.

The experiment has as its system IL-1β production in PMA-differentiated THP-1 cells. The experiment in a line: IL-1β production in PMA-differentiated THP-1 cells stimulated with gramicidin (hTHP-1 assay, 2% bovine serum; Bioassays 1 and 2). The format is cell-based, human. Particulars: hTHP-1 assay containing 2% bovine serum, read-out: Average IC50 of compounds in hTHP-1 assay. How it is done:
IL-1β Production in PMA-Differentiated THP-1 Cells Stimulated with Gramicidin.
Cell culture-THP-1 cells were purchased from the American Type Culture Collection and sub-cultured according to instructions from the supplier. Prior to experiments, cells were cultured in RPMI 1640 containing 10% heat inactivated FBS, penicillin (100 units/ml) and streptomycin (100 μg/ml), and maintained in log phase prior to experimental setup. Prior to the experiment THP-1 were treated with PMA (Phorbol 12-myristate 13-acetate) (10 μg/ml) for 24 hours. The day of the experiment the media was removed and attaching cells were treated with trypsin for 2 minutes, cells were then collected, washed with PBS (phosphate buffer saline), spin down, resuspended in 2% heat inactivated FBS with RPMI at a concentration of 1×10^6 cells/ml, and 100 ul was plated in a 96 well plate. Cells were incubated with compounds for 1 hours and then stimulated with Gramicidin (5 μM) (Enzo) for 2 hours. Cell free supernatant was collected and the production of IL-1β was evaluated by ELISA. Compounds were dissolved in dimethyl sulfoxide (DMSO) and added to the culture medium to achieve desired concentration (e.g. 100, 30, 10, 3, 1, 0.3 or 0.1 μM). A vehicle only control was run concurrently with each experiment. Final DMSO concentration was 1%.
THP-1 cells were purchased from the American Type Culture Collection and sub-cultured according to instructions from the supplier. Prior to experiments, cells were cultured in complete RPMI 1640 (containing 10% heat inactivated FBS, penicillin (100 units/ml) and streptomycin (100 μg/ml)), and maintained in log phase prior to experimental setup. Prior to the experiment THP-1 were treated with PMA (Phorbol 12-myristate 13-acetate) (20 ng/ml) for 16-18 hours. On the day of the experiment the media was removed and adherent cells were detached with trypsin for 5 minutes. Cells were then harvested, washed with complete RPMI 1640, spun down, resuspended in RPMI 1640 (containing 2% heat inactivated FBS, penicillin (100 units/ml) and streptomycin (100 μg/ml). The cells were plated in a 384-well plate at a density of 50,000 cells/well (final assay volume 50 μl). Compounds were dissolved in dimethyl sulfoxide (DMSO) and added to the culture medium to achieve desired concentration (e.g. 100, 33, 11, 3.7, 1.2, 0.41, 0.14, 0.046, 0.015, 0.0051, 0.0017 μM). Cells were incubated with compounds for 1 hour and then stimulated with gramicidin (5 μM) (Enzo) for 2 hours. Cell free supernatant was collected and the production of IL-10 was evaluated by HTRF (cisbio). A vehicle only control was run concurrently with each experiment. Final DMSO concentration was 0.38%.
Compounds tested with protocols 1 and 2 provided IC50 values that are within the variability of the assay.
Tables 12 and 13 show the biological activity of compounds in hTHP-1 assay containing 2% bovine serum: <1 μM=“++++”; ≥1 and <5 μM=“+++”; ≥5 and <15 μM=“++”; ≥15 and <60 μM=“+”.

The mark [1] stands for this setting: Homo sapiens, THP-1, Table 12, by Example #.
The mark [2] stands for this setting: Homo sapiens, THP-1, Table 13, by Final Target Number.

Regarding `Cc1oc(S(=O)(=O)NC(=O)Cc2c(C(C)C)cc(F)cc2C(C)C)cc1C(C)(C)O` [Example 18, 2-(4-fluoro-2,6-diisopropylphenyl)-N-(4-(2-hydroxypropan-2-yl)-5-methylfuran-2-ylsulfonyl)acetamide], the IC50 under setting [1] lay in the range of 1 to 5 µM.
On to `CC(C)c1cc(F)cc(C(C)C)c1CC(=O)NS(=O)(=O)c1ccc(C(C)(C)O)s1` [Example 13, 2-(4-fluoro-2,6-diisopropylphenyl)-N-(5-(2-hydroxypropan-2-yl)thiophen-2-ylsulfonyl)acetamide], for which the IC50 under setting [1] fell in the range of 1 to 5 µM.
Still for that read-out and setting: the figure for `CC(C)c1cc(C#N)cc(C(C)C)c1CC(=O)NS(=O)(=O)c1cc(Cl)cc(C(C)(C)O)c1` [Example 28, N-(3-chloro-5-(2-hydroxypropan-2-yl)phenylsulfonyl)-2-(4-cyano-2,6-diisopropylphenyl)acetamide] is 1 to 5 µM.
Consider `CC(C)c1cc(F)cc(C(C)C)c1CC(=O)NS(=O)(=O)c1cccc(CN(C)C)c1` [Compound 215], for which, under setting [2], the IC50 is 5 to 15 µM.
As to `CC(C)c1cc(F)cc(C(C)C)c1CC(=O)NS(=O)(=O)c1ncc(C(C)O)s1` (centres unmarked) [Example 92, 2-(4-fluoro-2,6-diisopropylphenyl)-N-(5-(1-hydroxyethyl)thiazol-2-ylsulfonyl)acetamide], the 50% inhibitory concentration (IC50) under setting [1] is 1 to 5 µM.
Same read-out and setting: the figure for `CC(C)c1cc(F)cc(C(C)C)c1CC(=O)NS(=O)(=O)c1cc(C(C)(C)O)cs1` [Example 9, 2-(4-fluoro-2,6-diisopropylphenyl)-N-(4-(2-hydroxypropan-2-yl)thiophen-2-ylsulfonyl)acetamide] is below 1 µM; for `CC(C)c1cc(F)cc(C(C)C)c1CC(=O)NS(=O)(=O)c1ncc(CCO)s1` [Example 97, 2-(4-fluoro-2,6-diisopropylphenyl)-N-(5-(2-hydroxyethyl)thiazol-2-ylsulfonyl)acetamide] it is 5 to 15 µM; for `CC(C)c1cc(C#N)cc(C(C)C)c1CC(=O)NS(=O)(=O)c1cccc(C(C)(C)O)c1` [Example 26, 2-(4-cyano-2,6-diisopropylphenyl)-N-(3-(2-hydroxypropan-2-yl)phenylsulfonyl)acetamide] it is 1 to 5 µM.
Same read-out and setting: the figure for `Cc1sc(S(=O)(=O)NC(=O)Cc2c(C(C)C)cc(F)cc2C(C)C)cc1C(C)(C)O` [Example 17, 2-(4-fluoro-2,6-diisopropylphenyl)-N-(4-(2-hydroxypropan-2-yl)-5-methylthiophen-2-ylsulfonyl)acetamide] is 1 to 5 µM.
The same measure, in the same setting: the result for `CCc1cc(F)cc(CC)c1CC(=O)NS(=O)(=O)c1ncc(C(C)(C)O)s1` [Example 86, 2-(2,6-diethyl-4-fluorophenyl)-N-(5-(2-hydroxypropan-2-yl)thiazol-2-ylsulfonyl)acetamide] reads 5 to 15 µM.
Take `CC(C)c1cc(Cl)cc(C(C)C)c1CC(=O)NS(=O)(=O)c1ncc(C(C)(C)O)s1` [Example 70, 2-(4-chloro-2,6-diisopropylphenyl)-N-(5-(2-hydroxypropan-2-yl)thiazol-2-ylsulfonyl)acetamide]: under setting [1], the IC50 was below 1 µM.
The same measure, in the same setting: the figure for `CC(C)c1cccc(C2CC2)c1CC(=O)NS(=O)(=O)c1ncc(C(C)(C)O)s1` [Example 80, 2-(2-cyclopropyl-6-isopropylphenyl)-N-(5-(2-hydroxypropan-2-yl)thiazol-2-ylsulfonyl)acetamide] is 5 to 15 µM.
In the case of `CC(C)c1cc(F)cc(C(C)C)c1CC(=O)NS(=O)(=O)c1ncc(CN(C)C)s1` [Compound 213], the IC50 under setting [2] is 5 to 15 µM.
With `CC(C)(O)c1cnc(S(=O)(=O)NC(=O)Cc2c3c(c(Cl)c4c2CCC4)CCC3)s1` [Example 5, 2-(8-Chloro-1,2,3,5,6,7-hexahydros-indacen-4-yl)-N-(5-(2-hydroxypropan-2-yl)thiazol-2-ylsulfonyl)acetamide], the IC50 under setting [1] lay within 15 to 60 µM.
The same measure, in the same setting: the figure for `CC(C)c1cc(C#N)cc(C(C)C)c1CC(=O)NS(=O)(=O)c1cc(C(C)(C)O)cc(C(C)(C)O)c1` [Example 31, N-(3,5-bis(2-hydroxypropan-2-yl)phenylsulfonyl)-2-(4-cyano-2,6-diisopropylphenyl)acetamide] is 5 to 15 µM.
In the case of `CC(C)c1cc(F)cc(C(C)C)c1CC(=O)NS(=O)(=O)c1ccc(S(F)(F)(F)(F)F)cc1` [Example 39], the IC50 (Table 12, by Example #) was in the range of 15 to 60 µM.
In the case of `CC(C)c1cc(F)cc(C(C)C)c1CC(=O)NS(=O)(=O)c1ccn(C(C)C)n1` [Example 62, 2-(4-fluoro-2,6-diisopropylphenyl)-N-(1-isopropyl-1H-pyrazol-3-ylsulfonyl)acetamide], the IC50 under setting [1] was 5 to 15 µM.
For `CC(C)c1cc(C#N)cc(C(C)C)c1CC(=O)NS(=O)(=O)c1ccc(C(C)(C)O)nc1` [Example 37, 2-(4-cyano-2,6-diisopropylphenyl)-N-(6-(2-hydroxypropan-2-yl)pyridin-3-ylsulfonyl)acetamide], the IC50 under setting [1] is 5 to 15 µM.
On the same count and under the same terms, the result for `CC(C)c1cnc(S(=O)(=O)NC(=O)Cc2c(C(C)C)cc(F)cc2C(C)C)s1` [Example 84, 2-(4-fluoro-2,6-diisopropylphenyl)-N-(5-isopropylthiazol-2-ylsulfonyl)acetamide] reads 5 to 15 µM; that for `Cc1c(C(C)(C)O)cccc1S(=O)(=O)NC(=O)Cc1c(C(C)C)cc(F)cc1C(C)C` [Example 44, 2-(4-fluoro-2,6-diisopropylphenyl)-N-(3-(2-hydroxypropan-2-yl)-2-methylphenylsulfonyl)acetamide], 5 to 15 µM; that for `Cc1cc(C(C)(C)O)ccc1S(=O)(=O)NC(=O)Cc1c(C(C)C)cc(F)cc1C(C)C` [Example 48, 2-(4-fluoro-2,6-diisopropylphenyl)-N-(4-(2-hydroxypropan-2-yl)-2-methylphenylsulfonyl)acetamide], below 1 µM.
With `CC(C)c1cc(F)cc(C(C)C)c1CC(=O)NS(=O)(=O)c1nc(C(C)(C)O)cs1` [Example 81, 2-(4-fluoro-2,6-diisopropylphenyl)-N-(4-(2-hydroxypropan-2-yl)thiazol-2-ylsulfonyl)acetamide], the IC50 under setting [1] lay within 15 to 60 µM.
For `CC(C)c1cc(F)cc(C(C)C)c1CC(=O)NS(=O)(=O)c1ncc(CO)s1` [Example 91, 2-(4-Fluoro-2,6-diisopropylphenyl)-N-(5-(hydroxymethyl)thiazol-2-ylsulfonyl)acetamide], the IC50 under setting [1] lay within 15 to 60 µM.
The same measure, in the same setting: the figure for `COC(C)(C)c1cnc(S(=O)(=O)NC(=O)Cc2c(C(C)C)cc(F)cc2C(C)C)s1` [Example 73, 2-(4-fluoro-2,6-diisopropylphenyl)-N-(5-(2-methoxypropan-2-yl)thiazol-2-ylsulfonyl)acetamide] is 1 to 5 µM; for `CC(C)c1ccc(F)c(C(C)C)c1CC(=O)NS(=O)(=O)c1ccc(C(C)(C)O)cc1` [Example 43, 2-(3-fluoro-2,6-diisopropylphenyl)-N-(4-(2-hydroxypropan-2-yl)phenylsulfonyl)acetamide] it is 1 to 5 µM.
Take `CC(C)c1cc(C#N)cc(C(C)C)c1CC(=O)NS(=O)(=O)c1nc(C(C)(C)O)cs1` [Example 82, 2-(4-cyano-2,6-diisopropylphenyl)-N-(4-(2-hydroxypropan-2-yl)thiazol-2-ylsulfonyl)acetamide]: under setting [1], the IC50 was 15 to 60 µM.
The same measure, in the same setting: the figure for `CC(C)c1cccc(C(C)C)c1CC(=O)NS(=O)(=O)c1cc(C(C)(C)O)cc(C(C)(C)O)c1` [Example 24, N-(3,5-bis(2-hydroxypropan-2-yl)phenylsulfonyl)-2-(2,6-diisopropylphenyl)acetamide] is 15 to 60 µM; for `CC(C)c1c(F)c(Cl)c(F)c(C(C)C)c1CC(=O)NS(=O)(=O)c1cc(C(C)(C)O)cs1` [Example 12, 2-(4-chloro-3,5-difluoro-2,6-diisopropylphenyl)-N-(4-(2-hydroxypropan-2-yl)thiophen-2-ylsulfonyl)acetamide] it is below 1 µM; for `CC(C)c1cc(F)cc(C(C)C)c1CC(=O)NS(=O)(=O)c1ccc(C(C)(C)O)c(CO)c1` [Example 94, 2-(4-fluoro-2,6-diisopropylphenyl)-N-(3-(hydroxymethyl)-4-(2-hydroxypropan-2-yl)phenylsulfonyl)acetamide] it is 1 to 5 µM.
